According to ChEMBL document CHEMBL5143680, “Cytotoxic Bromine- and Iodine-Containing Cytochalasins Produced by the Mangrove Endophytic Fungus Phomopsis sp. QYM-13 Using the OSMAC Approach” (J Nat Prod, 2022):
pIC50: −log10 of the molar value.

Assays:
[1] = tested on: A549; assay: Cytotoxicity against human A549 cells measured after 72 hrs by MTT assay; assay type: functional, cell-based; details: A549, 72 h
[2] = tested on: MDA-MB-435; assay: Cytotoxicity against human MDA-MB-435 cells measured after 72 hrs by MTT assay; assay type: functional, cell-based; details: MDA-MB-435, 72 h
[3] = tested on: HepG2; assay: Cytotoxicity against human HepG2 cells measured after 72 hrs by MTT assay; assay type: functional, cell-based; details: HepG2, 72 h
[4] = tested on: MDA-MB-231; assay: Cytotoxicity against human MDA-MB-231 cells measured after 72 hrs by MTT assay; assay type: functional, cell-based; details: MDA-MB-231, 72 h
[5] = tested on: SNB-19; assay: Cytotoxicity against human SNB-19 cells measured after 72 hrs by MTT assay; assay type: functional, cell-based; details: SNB-19, 72 h
[6] = Cytotoxicity against African green monkey Vero cells measured after 72 hrs by MTT assay; assay type: toxicity, cell-based; details: African green monkey (Chlorocebus sabaeus)

Structure (SMILES)	pIC50 [1]	pIC50 [2]	pIC50 [3]	pIC50 [4]	pIC50 [5]	IC50 at 72 h [6] [µM]
C=C1/C=C/[C@@H](OC(C)=O)[C@@]23C(=O)N[C@@H](Cc4ccccc4)[C@@H]2[C@H](C)C(=C)[C@@H](O)[C@@H]3/C=C/C[C@H](C)C1	< 4.30	4.96	< 4.30	4.46	4.80	14
C=C1[C@@H](C)[C@H]2[C@H](Cc3ccccc3)NC(=O)[C@]23[C@H](OC(C)=O)/C=C/C(C)=C\[C@@H](C)C/C=C/[C@H]3[C@@H]1O	< 4.30	4.92	< 4.30	4.35	4.38	25
C=C1[C@@H](C)[C@H]2[C@H](Cc3ccccc3)NC(=O)[C@@]23[C@H]2[C@@H]4[C@H](C(C)=C[C@@H](C)C[C@H]4O[C@H]12)[C@H]3OC(C)=O	< 4.30	4.44	< 4.30	< 4.30	< 4.30	34
C=C1[C@@H](C)[C@H]2[C@H](Cc3ccccc3)NC(=O)[C@]23[C@H](O)/C=C/[C@](C)(O)C[C@@H](C)C/C=C/[C@H]3[C@@H]1O	< 4.30	5.31	< 4.30	4.51	5.17	> 50
CC(=O)O[C@@H]1/C=C/[C@](C)(O)C[C@@H](C)C/C=C/[C@H]2C=C(CO)[C@@H](C)[C@H]3[C@H](Cc4ccccc4)NC(=O)[C@]321	4.42	5.09	< 4.30	4.38	5.16	22
CC1=C[C@@H]2/C=C/C[C@H](C)C[C@H](C)[C@@H]3O[C@H]3C(=O)[C@]23C(=O)N[C@@H](Cc2ccccc2)[C@@H]3[C@@H]1C	< 4.30	4.36	< 4.30	< 4.30	< 4.30	> 50
CC1=C[C@@H]2/C=C/C[C@H](C)C[C@@](C)(O)[C@@H]3O[C@H]3C(=O)[C@]23C(=O)N[C@@H](Cc2ccccc2)[C@@H]3[C@@H]1C	4.55	4.49	< 4.30	4.96	< 4.30	29
C=C1[C@@H](C)[C@H]2[C@H](Cc3ccccc3)NC(=O)[C@@]23[C@H]2[C@@H]4[C@H](C(C)=C[C@@H](C)C[C@H]4O[C@H]12)[C@@H](I)[C@H]3O	< 4.30	< 4.30	< 4.30	< 4.30	< 4.30	39
CC1=C[C@@H]2/C=C/C[C@H](C)C[C@@](C)(O)/C=C/[C@@H](O)[C@]23C(=O)N[C@@H](Cc2ccccc2)[C@@H]3[C@@H]1C	4.42	4.42	< 4.30	< 4.30	< 4.30	44
C=C1[C@@H](C)[C@H]2[C@H](Cc3ccccc3)NC(=O)[C@@]23[C@@H]([C@@H]2[C@H](/C=C(/C)C[C@@H](C)C[C@H]2O)[C@H]3OC(C)=O)[C@@H]1O	< 4.30	4.35	< 4.30	< 4.30	< 4.30	> 50
CC(=O)O[C@@H]1/C=C/[C@](C)(O)C[C@@H](C)C/C=C/[C@H]2C=C(C)[C@@H](C)[C@H]3[C@H](Cc4ccccc4)NC(=O)[C@]321	< 4.30	4.47	< 4.30	< 4.30	< 4.30	> 50
C=C1[C@@H](C)[C@H]2[C@H](Cc3ccccc3)NC(=O)[C@@]23[C@H]2[C@@H]4[C@H](C(C)=C[C@@H](C)C[C@H]4O[C@H]12)[C@H]3O	< 4.30	< 4.30	< 4.30	< 4.30	< 4.30	> 50
CC(=O)O[C@@H]1/C=C/[C@](C)(O)C[C@@H](C)C/C=C/[C@H]2C=C(C(=O)O)[C@@H](C)[C@H]3[C@H](Cc4ccccc4)NC(=O)[C@]321	< 4.30	< 4.30	< 4.30	< 4.30	< 4.30	> 50
C[C@H]1C/C=C/[C@H]2C=C(CO)[C@@H](C)[C@H]3[C@H](Cc4ccccc4)NC(=O)[C@]32[C@H](O)/C=C/[C@](C)(O)C1	< 4.30	4.60	< 4.30	< 4.30	< 4.30	> 50
C=C1[C@@H](C)[C@H]2[C@H](Cc3ccccc3)NC(=O)[C@@]23[C@@H]([C@@H]2[C@H](/C=C(/C)C[C@@H](C)C[C@H]2I)[C@H]3OC(C)=O)[C@@H]1O	4.48	4.33	4.33	4.37	< 4.30	29
C=C1[C@@H](C)[C@H]2[C@H](Cc3ccccc3)NC(=O)[C@]23[C@H](OC(C)=O)/C=C/[C@](C)(O)C[C@@H](C)C/C=C/[C@H]3[C@@H]1O	< 4.30	6.70	< 4.30	4.38	4.59	40
C=C1[C@@H](C)[C@H]2[C@H](Cc3ccccc3)NC(=O)[C@]23[C@H](OC(C)=O)[C@@H]2O[C@H]2[C@](C)(O)C[C@@H](C)C/C=C/[C@H]3[C@@H]1O	< 4.30	4.38	< 4.30	< 4.30	< 4.30	> 50
C=C1[C@@H](C)[C@H]2[C@H](Cc3ccccc3)NC(=O)[C@@]23[C@@H]([C@@H]2[C@H](/C=C(/C)C[C@@H](C)C[C@H]2Br)[C@H]3OC(C)=O)[C@@H]1O	< 4.30	5.13	< 4.30	4.36	< 4.30	18
